Measured values published in article PMC8364686, “Safety, tolerability, pharmacokinetics and pharmacodynamics of single oral doses of BI 187004, an inhibitor of 11beta-hydroxysteroid dehydrogenase-1, in healthy male volunteers with overweight or obesity” (Clinical Diabetes and Endocrinology, 2021).

Assay: Plasma pharmacokinetics of BI 187004 after single oral doses (LC–MS/MS)
Details: male, human, plasma, po; for concentration at 36 h: planned time 36 h; for concentration at 48 h: planned time 48 h; for concentration at 72 h: planned time 72 h; for concentration at 96 h: planned time 96 h; for concentration at 0.5 h: planned time 0.5 h; for concentration at 1 h: planned time 1 h; for concentration at 1.5 h: planned time 1.5 h; for concentration at 2 h: planned time 2 h; for concentration at 2.5 h: planned time 2.5 h; for concentration at 3 h: planned time 3 h; for concentration at 4 h: planned time 4 h; for concentration at 5 h: planned time 5 h; for concentration at 6 h: planned time 6 h; for concentration at 8 h: planned time 8 h; for concentration at 10 h: planned time 10 h; for concentration at 12 h: planned time 12 h
[1] = 160 mg, BI 187004 plasma concentrations, 160 mg single oral, Max
[2] = 160 mg, BI 187004 plasma concentrations, 160 mg single oral, Mean
[3] = 160 mg, BI 187004 plasma concentrations, 160 mg single oral, Median
[4] = 160 mg, BI 187004 plasma concentrations, 160 mg single oral, Min
[5] = 160 mg, BI 187004 plasma concentrations, 160 mg single oral, gMean
[6] = 240 mg, BI 187004 plasma concentrations, Max, 240 mg single oral
[7] = 240 mg, BI 187004 plasma concentrations, Mean, 240 mg single oral
[8] = 240 mg, BI 187004 plasma concentrations, Median, 240 mg single oral
[9] = 240 mg, BI 187004 plasma concentrations, Min, 240 mg single oral
[10] = 240 mg, BI 187004 plasma concentrations, gMean, 240 mg single oral

N#Cc1ccc2c(c1)[C@H]1CCCN(C(=O)c3ccc4[nH]cnc4c3)[C@H]1C2 [BI 187004]
concentration at 36 h [1]: 1390 nM
concentration at 36 h [2]: 716 nM
concentration at 36 h [3]: 604 nM
concentration at 36 h [4]: 476 nM
concentration at 36 h [5]: 669 nM
concentration at 48 h [1]: 1000 nM
concentration at 48 h [2]: 457 nM
concentration at 48 h [3]: 352 nM
concentration at 48 h [4]: 329 nM
concentration at 48 h [5]: 414 nM
concentration at 72 h [1]: 312 nM
concentration at 72 h [2]: 139 nM
concentration at 72 h [3]: 108 nM
concentration at 72 h [4]: 85.9 nM
concentration at 72 h [5]: 125 nM
concentration at 96 h [1]: 46.8 nM
concentration at 96 h [2]: 33.8 nM
concentration at 96 h [3]: 31.7 nM
concentration at 96 h [4]: 28 nM
concentration at 96 h [5]: 33.2 nM
concentration at 96 h (160 mg, BI 187004 plasma concentrations, 160 mg single oral, individual subjects): 30.2 nM
concentration at 24 h (160 mg, C24 gMean (%gCV), 160 mg single oral dose): 1630 nM
AUC(0-inf) (240 mg): 109 µM·h
AUC(0-t) (240 mg): 71.7 µM·h
Cmax (240 mg): 7120 nM
Tmax (240 mg): 1 h
Vd/F (240 mg): 124 L
half-life (240 mg): 13.4 h
concentration at 24 h (240 mg, BI 187004 plasma concentrations, 240 mg single oral, planned time 24 h, individual subjects): 2180 nM
concentration at 0.5 h [6]: 8440 nM
concentration at 1 h [6]: 10700 nM
concentration at 1.5 h [6]: 9030 nM
concentration at 2 h [6]: 9220 nM
concentration at 2.5 h [6]: 8510 nM
concentration at 3 h [6]: 6980 nM
concentration at 4 h [6]: 8420 nM
concentration at 5 h [6]: 6780 nM
concentration at 6 h [6]: 6370 nM
concentration at 8 h [6]: 5380 nM
concentration at 10 h [6]: 5800 nM
concentration at 12 h [6]: 3900 nM
concentration at 24 h (240 mg, BI 187004 plasma concentrations, Max, 240 mg single oral, planned time 24 h): 2630 nM
concentration at 36 h [6]: 1340 nM
concentration at 48 h [6]: 794 nM
concentration at 72 h [6]: 323 nM
concentration at 96 h [6]: 181 nM
concentration at 0.5 h [7]: 5210 nM
concentration at 1 h [7]: 7490 nM
concentration at 1.5 h [7]: 6420 nM
concentration at 2 h [7]: 6260 nM
concentration at 2.5 h [7]: 6300 nM
concentration at 3 h [7]: 5150 nM
concentration at 4 h [7]: 5510 nM
concentration at 5 h [7]: 4780 nM
concentration at 6 h [7]: 4330 nM
concentration at 8 h [7]: 3850 nM
concentration at 10 h [7]: 3450 nM
concentration at 12 h [7]: 2590 nM
concentration at 24 h (240 mg, BI 187004 plasma concentrations, Mean, 240 mg single oral, planned time 24 h): 2170 nM
concentration at 36 h [7]: 926 nM
concentration at 48 h [7]: 508 nM
concentration at 72 h [7]: 157 nM
concentration at 96 h [7]: 63.9 nM
concentration at 0.5 h [8]: 5530 nM
concentration at 1 h [8]: 8430 nM
concentration at 1.5 h [8]: 6890 nM
concentration at 2 h [8]: 6780 nM
concentration at 2.5 h [8]: 7270 nM
concentration at 3 h [8]: 5840 nM
concentration at 4 h [8]: 5680 nM
concentration at 5 h [8]: 5430 nM
concentration at 6 h [8]: 5270 nM
concentration at 8 h [8]: 4370 nM
concentration at 10 h [8]: 3700 nM
concentration at 12 h [8]: 2890 nM
concentration at 24 h (240 mg, BI 187004 plasma concentrations, Median, 240 mg single oral, planned time 24 h): 2320 nM
concentration at 36 h [8]: 887 nM
concentration at 48 h [8]: 461 nM
concentration at 72 h [8]: 98.9 nM
concentration at 96 h [8]: 36.4 nM
concentration at 0.5 h [9]: 130 nM
concentration at 1 h [9]: 440 nM
concentration at 1.5 h [9]: 811 nM
concentration at 2 h [9]: 543 nM
concentration at 2.5 h [9]: 605 nM
concentration at 3 h [9]: 388 nM
concentration at 4 h [9]: 575 nM
concentration at 5 h [9]: 494 nM
concentration at 6 h [9]: 452 nM
concentration at 8 h [9]: 181 nM
concentration at 10 h [9]: 313 nM
concentration at 12 h [9]: 258 nM
concentration at 24 h (240 mg, BI 187004 plasma concentrations, Min, 240 mg single oral, planned time 24 h): 1530 nM
concentration at 36 h [9]: 567 nM
concentration at 48 h [9]: 255 nM
concentration at 72 h [9]: 54.1 nM
concentration at 96 h [9]: 15.8 nM
concentration at 0.5 h [10]: 3180 nM
concentration at 1 h [10]: 5340 nM
concentration at 1.5 h [10]: 5150 nM
concentration at 2 h [10]: 4710 nM
concentration at 2.5 h [10]: 4840 nM
concentration at 3 h [10]: 3840 nM
concentration at 4 h [10]: 4280 nM
concentration at 5 h [10]: 3700 nM
